Measurements: patent publication US9994581B2, “Bromodomain inhibitors” (AbbVie Inc., priority 2013, dated 2018)

How the values were obtained:
[1] = tested on: breast cancer cell line MX-1; assay: MX-1 cell line proliferation assay (3-day, Cell Titer Glo); assay type: cell-based; settings: Homo sapiens, MX1, MX-1 cells, 72 hours, read-out: Cellular proliferation: EC50
Protocol: The impact of compounds of the Examples on cancer cell proliferation was determined using the breast cancer cell line MX-1 (ATCC) in a 3-day proliferation assay and the data are reported in Table 1. […] For compound testing, MX-1 cells were plated in 96-well black bottom plates at a density of 5000 cells/well in 90 μL of culture media and incubated at 37° overnight to allow cell adhesion and spreading. Compound dilution series were prepared in DMSO via a 3-fold serial dilution from 3 mM to 0.1 μM. The DMSO dilution series were then diluted 1:100 in phosphate buffered saline, and 10 μL of the resulted solution were added to the appropriate wells of the MX-1 cell plate. The final compound concentrations in the wells were 3, 1, 0.3, 0.1, 0.03, 0.01, 0.003, 0.001, 0.0003, and 0.0001 μM, or 1, 0.3, 0.1, 0.03, 0.01, 0.003, 0.001, 0.0003, 0.0001, and 0.00003 μM.
Luminescence readings from the Cell Titer Glo assay were normalized to the DMSO treated cells and analyzed using the GraphPad Prism software with sigmoidal curve fitting to obtain EC50s.

[2] = target: BRD4 (BDI-BDII_K57-K550) (Homo sapiens, UniProt O60885); assay: TR-FRET bromodomain binding assay; settings: His-tagged tandem bromodomain, Alexa647-labeled probe; Ki calculated from IC50s, probe Kd and probe concentration
Protocol: A time-resolved fluorescence resonance energy transfer (TR-FRET) assay was used to determine the affinities of compounds of the Examples listed in Table 1 for the tandem domain of bromodomain BRD4. […] An Alexa647-labeled BET-inhibitor was used as the fluorescent probe in the assay.
TR-FRET data were normalized to the means of 24 no-compound controls (“high”) and 8 controls containing 1 μM un-labeled probe (“low”). Percent inhibition was plotted as a function of compound concentration and the data were fit with the 4 parameter logistic equation to obtain IC50s. Inhibition constants (Ki) were calculated from the IC50s, probe Kd and probe concentration. Typical Z′ values were between 0.65 and 0.75.

Row | EC50 [1] [nM] | Ki [2] [nM] | SMILES
1 | 17 | 0.97 | CCOC(=O)N1CCOc2cc(=O)n(C)cc2-c2cc(NS(=O)(=O)CC)ccc2Oc2ccc(Cl)cc2C1 [Example B-8, ethyl 11-chloro-17-[(ethylsulfonyl)amino]-2-methyl-3-oxo-2,3,6,7-tetrahydrodibenzo[f,i]pyrido[3,4-k][1,8,4]dioxazacyclododecine-8(9H)-carboxylate]
2 | 16.9 | 3.99 | CCS(=O)(=O)Nc1ccc2c(c1)-c1nn(C)c(=O)cc1OCCCCc1cc(C#N)ccc1O2 [Example A-56, N-(11-cyano-2-methyl-3-oxo-2,3,6,7,8,9-hexahydrodibenzo[4,5:7,8][1,6]dioxacyclododecino[3,2-c]pyridazin-17-yl)ethanesulfonamide]
3 | 3.82 | 1.84 | CCS(=O)(=O)Nc1ccc2c(c1)-c1cn(C)c(=O)cc1OCCCCc1cc(C#N)ccc1O2 [Example A-45, N-(11-cyano-2-methyl-3-oxo-2,3,6,7,8,9-hexahydrodibenzo[4,5:7,8][1,6]dioxacyclododecino[3,2-c]pyridin-17-yl)ethanesulfonamide]
4 | 1.16 | 5.8 | CCS(=O)(=O)c1ccc2c(c1)-c1cn(C)c(=O)cc1OCCCCc1cccc(C)c1O2 [Example A-60, 17-(ethylsulfonyl)-2,13-dimethyl-6,7,8,9-tetrahydrodibenzo[4,5:7,8][1,6]dioxacyclododecino[3,2-c]pyridin-3(2H)-one]
5 | 142 | 15.6 | CC(=O)Nc1ccc2c(c1)-c1cn(C)c(=O)cc1OCCN(C(C)=O)Cc1cc(Cl)ccc1O2 [Example B-2, N-(8-acetyl-11-chloro-2-methyl-3-oxo-2,3,6,7,8,9-hexahydrodibenzo[f,i]pyrido[3,4-k][1,8,4]dioxazacyclododecin-17-yl)acetamide]
6 | 10.8 | 1.29 | CCS(=O)(=O)c1ccc2c(c1)-c1cn(C)c(=O)cc1OCCCCc1ccc(Cl)cc1O2 [Example A-25, 12-chloro-17-(ethylsulfonyl)-2-methyl-6,7,8,9-tetrahydrodibenzo[4,5:7,8][1,6]dioxacyclododecino[3,2-c]pyridin-3(2H)-one]
7 | 29.7 | 1.24 | CCS(=O)(=O)Nc1ccc2c(c1)-c1cn(C)c(=O)cc1OCCN(C(=O)OC(C)(C)C)Cc1cc(Cl)ccc1O2 [Example B-10, tert-butyl 11-chloro-17-[(ethylsulfonyl)amino]-2-methyl-3-oxo-2,3,6,7-tetrahydrodibenzo[f,i]pyrido[3,4-k][1,8,4]dioxazacyclododecine-8(9H)-carboxylate]
8 | 26.8 | 8.05 | CCS(=O)(=O)Nc1ccc2c(c1)-c1cn(C)c(=O)cc1OCCCCc1cc(Cl)cnc1O2 [Example A-41, N-(3-chloro-12-methyl-11-oxo-5,6,7,8,11,12-hexahydrobenzo[4,5][1,6]dioxacyclododecino[7,8-b:3,2-c′]dipyridin-15-yl)ethanesulfonamide]
9 | 111 | 24.2 | CCS(=O)(=O)c1ccc2c(c1)-c1nn(C)c(=O)cc1OCCCCc1ccncc1O2 [Example A-59, 17-(ethylsulfonyl)-2-methyl-6,7,8,9-tetrahydrobenzo[4,5]pyrido[3′,4′:7,8][1,6]dioxacyclododecino[3,2-c]pyridazin-3(2H)-one]
10 |  | 88.7 | Cn1cc2c(cc1=O)OCCCCc1cc(Cl)ccc1Oc1ncc(N)cc1-2 [Example A-32, 17-amino-11-chloro-2-methyl-6,7,8,9-tetrahydrobenzo[11,12][1,6]dioxacyclododecino[2,3-b:4,5-c′]dipyridin-3(2H)-one]
11 |  | 25.2 | Cn1cc2c(cc1=O)OCCCCc1cc(Cl)ccc1Oc1ccc(N)cc1-2 [Example A-8, 17-amino-11-chloro-2-methyl-6,7,8,9-tetrahydrodibenzo[4,5:7,8][1,6]dioxacyclododecino[3,2-c]pyridin-3(2H)-one]
